Broadly, the Ki is the dissociation constant of the complex between target and ligand, obtained from inhibition or displacement.

Molecules are shown by their SMILES.

Results on 11 molecules are retold here after patent US9828339B2, “Biphenyl derivatives and methods for preparing same” (DONG-A ST CO., LTD, priority 2013, dated 2017).

Test [1] addresses T1, human muscarinic M3 receptor (Homo sapiens (Human), UniProt P20309). As to the kind of experiment: Antagonism assay on human muscarinic M3 receptor (carbachol-induced intracellular calcium, FLIPR Calcium 5, transfected Cos-7 cells). It counts as cell-based. The settings on record: functional inhibitory constant; carbachol-induced intracellular calcium in Cos-7 cells transfected with human M3 receptor. In short, it runs like this:
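Cos-7 cells transfected with human M3 receptor plasmid, pre-treated 3 min with compound, then carbachol-stimulated; intracellular calcium read by FLIPR Calcium 5.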

Test [2] deals with T1, human muscarinic M3 receptor. The test can be described thus: Binding assay on human muscarinic M3 receptor ([3H]-methyl scopolamine displacement). The settings on record: membranes overexpressing human M3 receptor, Ki from IC50 by Cheng-Prusoff, read-out: Binding Affinity to M3 Receptor, Ki. In short, it runs like this:
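Displacement of [3H]-methyl scopolamine from membranes overexpressing human M3, in Tris-HCl, 25 °C, 120 min; filter-bound radioactivity counted. Nonspecific binding with 5 μM atropine; Ki from IC50 via Cheng-Prusoff.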

For test [3], the system named is rhythmic bladder contractions. As to the kind of experiment: Rhythmic bladder contractions in rats (in vivo). Details: species or system rat. The settings on record: 0.3 mpk, intravenous, female Sprague-Dawley rats; amplitude reduction of bladder contractions. The text has this:
[Experimental Example 3] Experiment on Rhythmic Bladder Contractions in Rats (In Vivo)
Female Sprague-Dawley rat was halothane-anesthetized, and a polyethylene catheter was inserted through urethra lay down straight and fixed. Urine in bladder was excreted through the catheter by gently massaging abdomen of the rat, and then removed. A three-way stopcock was connected to the catheter and a pressure transducer was connected to one side of the three-way stopcock to measure pressure, and a syringe was installed at the other side to inject 37° C. of saline solution. The saline solution was slowly injected until regular bladder contractions occurred repeatedly. When regular bladder contractions occurred stably, test compounds were administered intravenously through the tail vein. Inhibitory effect of the test compounds was evaluated by measuring degree of amplitude reduction of bladder contractions.

T1 sequence (P20309 whole entry): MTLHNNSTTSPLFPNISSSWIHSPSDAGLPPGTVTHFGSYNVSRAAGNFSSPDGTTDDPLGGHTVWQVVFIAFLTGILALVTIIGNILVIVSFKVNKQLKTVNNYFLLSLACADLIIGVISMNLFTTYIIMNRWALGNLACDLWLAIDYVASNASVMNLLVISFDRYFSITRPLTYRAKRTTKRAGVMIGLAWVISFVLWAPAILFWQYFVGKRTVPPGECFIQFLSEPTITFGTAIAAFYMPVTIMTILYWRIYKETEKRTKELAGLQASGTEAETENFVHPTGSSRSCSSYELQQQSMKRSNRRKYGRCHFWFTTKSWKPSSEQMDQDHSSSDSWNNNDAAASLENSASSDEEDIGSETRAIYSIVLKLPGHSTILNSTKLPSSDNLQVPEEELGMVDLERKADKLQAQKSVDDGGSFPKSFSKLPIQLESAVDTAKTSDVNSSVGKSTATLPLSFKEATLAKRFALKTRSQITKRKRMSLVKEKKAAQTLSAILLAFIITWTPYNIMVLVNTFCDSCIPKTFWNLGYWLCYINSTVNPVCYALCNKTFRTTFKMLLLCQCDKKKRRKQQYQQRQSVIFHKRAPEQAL

With `CN1CC[C@H](COC(=O)Nc2ccc(F)cc2-c2ccc(F)cc2)C1` [Example 124, (S)-(1-methylpyrrolidin-3-yl)methyl(4′,5-difluoro-[1,1′-biphenyl]-2-yl)carbamate], the Ki in test [1] is 2.86 nM; in test [2] it was 8.12 nM. Besides, the “Inhibition of Rhythmic bladder contraction in rats” value (“Inhibition” for short) in test [3] was 21.2 ± 0.7%.
For `CN1CC[C@H](COC(=O)Nc2ccc(F)cc2-c2ccc(Cl)c(Cl)c2)C1` [Example 128, (S)-(1-methylpyrrolidin-3-yl)methyl(3′,4′-dichloro-5-fluoro-[1,1′-biphenyl]-2-yl)carbamate], in that order: 1.2 nM, 3.41 nM and 15.1 ± 3.4%.
The matching figures for `CN1CC[C@H](COC(=O)Nc2ccc(F)cc2-c2cc(F)cc(Cl)c2)C1` [Example 129, (S)-(1-methylpyrrolidin-3-yl)methyl(3′-chloro-5,5′-difluoro-[1,1′-biphenyl]-2-yl)carbamate]: 6.24 nM, 12.6 nM and 15.7 ± 1.4%.
Consider `CN1CC[C@@H](COC(=O)Nc2ccccc2-c2cc(Cl)cc(Cl)c2)C1` [Example 131, (R)-(1-methylpyrrolidin-3-yl)methyl(3′,5′-dichloro-[1,1′-biphenyl]-2-yl)carbamate], for which the values for the Ki in test [1] and in test [2] were 1.86 nM and 12 nM, respectively. In addition, the “Inhibition” value in test [3] is 17.8 ± 2.5%.
Consider `CN1CC[C@@H](COC(=O)Nc2ccc(F)cc2-c2cc(F)cc(Cl)c2)C1` [Example 142, (R)-(1-methylpyrrolidin-3-yl)methyl(3′-chloro-5,5′-difluoro-[1,1′-biphenyl]-2-yl)carbamate], for which the values for the Ki in test [1] and in test [2] were 1.04 nM and 4.88 nM, respectively. In test [3], the “Inhibition” value was 15.1 ± 3.4%.
The matching figures for `CN1CC[C@@H](COC(=O)Nc2ccc(Cl)cc2-c2cccc(Cl)c2)C1` [Example 145, (R)-(1-methylpyrrolidin-3-yl)methyl(3′,5-dichloro-[1,1′-biphenyl]-2-yl)carbamate]: 2.97 nM, 14.3 nM and 13.1 ± 3.0%.
`CN1CC[C@@H](COC(=O)Nc2ccc(Cl)cc2-c2ccc(F)c(Cl)c2)C1` [Example 146, (R)-(1-methylpyrrolidin-3-yl)methyl(3′,5-dichloro-4′-fluoro-[1,1′-biphenyl]-2-yl)carbamate]: the Ki in test [1] amounted to 1.57 nM; in test [2], 6.85 nM. The “Inhibition” value in test [3] amounted to 8.2 ± 2.9%.
Take `CN1CCC[C@H]1COC(=O)Nc1ccccc1-c1ccc(Cl)c(Cl)c1` [Example 166, (S)-(1-methylpyrrolidin-2-yl)methyl(3′,4′-dichloro-[1,1′-biphenyl]-2-yl)carbamate]: the results for the Ki in test [1] and in test [2] were 1.33 nM and 9.04 nM, respectively. Also, in test [3], the “Inhibition” value is recorded as 10.2 ± 1.7%.
On to `CN1CCC[C@H]1COC(=O)Nc1cc(F)c(F)cc1-c1ccc(F)c(Cl)c1` [Example 181, (S)-(1-methylpyrrolidin-2-yl)methyl(3′-chloro-4,4′,5-trifluoro-[1,1′-biphenyl]-2-yl)carbamate], for which the results for the Ki in test [1] and in test [2] were 0.29 nM and 3.29 nM, respectively. Further, the “Inhibition” value in test [3] came out at 18.1 ± 2.6%.
The matching figures for `CN1CC[C@@H](COC(=O)Nc2ccc(F)cc2-c2cccc(F)c2)C1` [Example 194, (R)-(1-methylpyrrolidin-3-yl)methyl(3′,5-difluoro-[1,1′-biphenyl]-2-yl)carbamate]: 0.58 nM, 6.3 nM and 24.6 ± 2.6%.
`Cc1ccc(NC(=O)OC[C@@H]2CCCN2C)c(-c2cccc(F)c2)c1` [Example 207, (S)-(1-methylpyrrolidin-2-yl)methyl(3′-fluoro-5-methyl-[1,1′-biphenyl]-2-yl)carbamate]: the Ki in test [1] came to 3.52 nM; in test [2], 13.4 nM. Moreover, the “Inhibition” value in test [3] was 18.2 ± 3.7%.
